Reference: patent US12116368B2, “Pyrrolo[2,3-d]pyrimidine tosylate salt, crystalline form thereof and manufacturing process and intermediates thereto” (Pfizer Inc., priority 2018, dated 2024)
Values joined by “and” are separate entries in the source; they are usually repeats but may differ in a detail not shown here. Identical values can stand only once.

Experiment: Solid state stability under accelerated stability conditions (70° C./75% RH, one week), monitoring purity
Assay type: physicochemical
Details: for Initial Purity: API purity before the accelerated stability stress test; for Final Purity (post stress test): after one week at 70° C./75% RH, solid state; for Recommended storage condition for use as an API: assigned from the accelerated stability result; for Solid state stability compared with amorphous free base and malonate salt: accelerated stability conditions 70° C./75% RH, one week
Description: The solid state stability is monitored using accelerated stability conditions (70° C./75% RH) for one week and then monitoring appearance, purity and form change. These accelerated conditions are used to assign an initial use period for the API.

Row | Structure (SMILES) | Initial Purity | Final Purity (post stress test) | Initial Purity (listed as malonate salt) | Final Purity (post stress test) (listed as malonate salt) | Recommended storage condition for use as an API | Solid state stability compared with amorphous free base and malonate salt
1 | C=CC(=O)N1C[C@H](Nc2ncnc3[nH]ccc23)CC[C@@H]1C [Amorphous Free base, 1-((2S,5R)-5-((7H-Pyrrolo[2,3-d]pyrimidin-4-yl)amino)-2-methylpiperidin-1-yl)prop-2-en-1-one] | 99.3% | 41.3& % | – | – | – | –
2 | C=CC(=O)N1C[C@H](Nc2ncnc3[nH]ccc23)CC[C@@H]1C.O=C(O)CC(=O)O [Malonate salt, 1-((2S,5R)-5-((7H-Pyrrolo[2,3-d]pyrimidin-4-yl)amino)-2-methyl-piperidin-1-yl)prop-2-en-1-one Malonic Acid Salt (Form 1)] | 99.5% | 81.6% | 99.5% | 81.6% | would require refrigeration | –
3 | C=CC(=O)N1C[C@H](Nc2ncnc3[nH]ccc23)CC[C@@H]1C.O=P(O)(O)O [Phosphate salt, 1-((2S,5R)-5-((7H-Pyrrolo[2,3-d]pyrimidin-4-yl)amino)-2-meth-ylpiperidin-1-yl)prop-2-en-1-one Phosphoric Acid Salt (Form A)] | 99.6% | 99.5% | – | – | – | significantly improved
4 | C=CC(=O)N1C[C@H](Nc2ncnc3[nH]ccc23)CC[C@@H]1C.Cc1ccc(S(=O)(=O)O)cc1 [Tosylate salt, 1-((2S,5R)-5-((7H-Pyrrolo[2,3-d]pyrimidin-4-yl)amino)-2-meth-ylpiperidin-1-yl)prop-2-en-1-one p-Toluenesulfonic Acid Salt (Form 1)] | 99.1% and 99.6% | 97.7% and 99.6% | – | – | would not require refrigerated storage conditions | significantly improved
